# Measurements published in patent publication US11213517B2, “Pharmaceutical combination comprising a T-type calcium channel blocker” (IDORSIA PHARMACEUTICALS LTD, priority 2016, dated 2022).
# “And” between values parts separate entries of the source, which are not always exact repeats. Identical values can stand only once. Like-named read-outs stand apart in the source and are kept apart here.
# Tests used:
# [1] = system: audiogenic seizure-sensitive juvenile DBA/2J mice; experiment: Audiogenic seizure-sensitive juvenile DBA/2J mouse model of generalized tonic-clonic seizures; type: in vivo; design: key: 0 none, 1 wild running, 2 clonus, 3 hind-limb tonic extension; conditions: oral gavage, mean ± SEM
# Excerpt: Audiogenic Seizure-Sensitive Juvenile DBA/2J Mouse Model of Generalized Tonic-Clonic Seizures
# The inbred DBA/2J mouse strain carries an increased general susceptibility for acute generalized convulsive seizures induced by either pharmacological, electrical or, as juvenile, auditory stimuli. At the age of 17 to 28 days (juvenile), they show tonic-clonic convulsions when exposed to a loud tone.
# Male juvenile DBA/2J mice (22-24 days old, body weight between 6.6 and 14.5 grams) were used. Each mouse was placed individually in the exposure chamber, an hemispheric acrylic glass dome (diameter: 50 cm) within a sound-attenuated box. After 60 seconds of habituation, an auditory stimulus of mixed frequency tone (15-20 kHz at 110 dB) was played from a speaker placed on the top center of the dome.
# The sound-attenuated box was equipped with lights and a camera system in order to observe and record the behavioral seizure response classified as following: • stage 0, no response • stage 1, wild running • stage 2, clonus • stage 3, tonic extension of the hind limbs.
# (§1) Different combination efficacy experiments are performed. […] Each experiment consists of four treatment groups: • 1. Vehicle (10% Polyethylene glycol400 (PEG400)/90% methylcellulose (0.5% in water; MC0.5%)), 3 h before exposure to the auditory stimulus+vehicle, 1 h before exposure to the auditory stimulus; • 2. COMPOUND 1 (in 10% PEG400/90% MC0.5%), 3 h before exposure to the auditory stimulus+vehicle, 1 h before exposure to the auditory stimulus; • 3. Vehicle, 3 h before exposure to the auditory stimulus+AED (in 10% PEG400/90% MC0.5%), 1 h before exposure to the auditory stimulus; and • 4. COMPOUND 1 (in 10% PEG400/90% MC0.5%), 3 h before exposure to the auditory stimulus+AED (in 10% PEG400/90% MC0.5%), 1 h before exposure to the auditory stimulus.
# [2] = Plasma and brain concentrations of drugs at the end of the audiogenic seizure experiment (LC-MS); type: in vivo, mouse; conditions: for plasma and brain concentrations after administration of the compounds alone or in combination: juvenile DBA/2J mice; for concentration at 1 h: DBA/2J, mouse, oral
# Procedure: Briefly, blood was sampled from the vena cava caudalis with a syringe pre-filled with EDTA (ethylenediamine tetraacetic acid) as anticoagulant and centrifuged to yield plasma (for 10 minutes, at 4° C. and 5000 rpm (rounds per minute)). Brain was sampled and homogenized into one volume of cold phosphate buffer (pH 7.4). Following extraction with methanol, concentrations of the compound in plasma and brain were determined using liquid chromatography coupled to mass spectrometry.
# as §1
# [3] = analyte LTG, vehicle 3 h + LTG 10 mg/kg 1 h before stimulus, oral gavage, mean ± SEM
compound,measurement,setting,value
"CC[C@@H](C(N)=O)N1CCCC1=O [LEV, (S)-2-(2-oxopyrrolidin-1-yl)butanamide]",Seizure stage (maximal seizure stage observed during exposure to auditory stimulus),[1]; vehicle 3 h + LEV 1 mg/kg 1 h before stimulus,3.0 ± 0.0
same,Seizure stage (maximal seizure stage observed during exposure to auditory stimulus),"[1]; vehicle 3 h + LEV 1 mg/kg 1 h before stimulus, listed as levetiracetam",3
same,Seizure stage (maximal seizure stage observed during exposure to auditory stimulus),[1]; vehicle 3 h + LEV 3 mg/kg 1 h before stimulus,2.1 ± 0.4 and 2.6 ± 0.3
same,plasma and brain concentrations after administration of the compounds alone or in combination,[2]; COMPOUND 1 and LEV,similar
same,concentration at 1 h,"[2]; brain, 1 mg/kg, analyte LEV, vehicle 3 h + LEV 1 mg/kg 1 h before stimulus, oral gavage, mean ± SEM, read-out: Brain concentration total",224 ± 20 ng/g
same,concentration at 1 h,"[2]; brain, 3 mg/kg, analyte LEV, vehicle 3 h + LEV 3 mg/kg 1 h before stimulus, oral gavage, mean ± SEM, read-out: Brain concentration total",677 ± 70 ng/g
same,concentration at 1 h,"[2]; brain, 10 mg/kg, analyte LEV, vehicle 3 h + LEV 10 mg/kg 1 h before stimulus, oral gavage, mean ± SEM, read-out: Brain concentration total",2130 ± 267 ng/g
same,concentration at 1 h,"[2]; brain, 50 mg/kg, analyte LEV, vehicle 3 h + LEV 50 mg/kg 1 h before stimulus, oral gavage, mean ± SEM, read-out: Brain concentration total",11100 ± 886 ng/g
same,concentration at 1 h,"[2]; brain, analyte LEV, COMPOUND 1 10 mg/kg 3 h + LEV 1 mg/kg 1 h before stimulus, oral gavage, mean ± SEM, read-out: Brain concentration total",310 ± 34 ng/g
same,concentration at 1 h,"[2]; brain, analyte LEV, COMPOUND 1 10 mg/kg 3 h + LEV 3 mg/kg 1 h before stimulus, oral gavage, mean ± SEM, read-out: Brain concentration total",787 ± 39 ng/g
same,concentration at 1 h,"[2]; brain, analyte LEV, COMPOUND 1 10 mg/kg 3 h + LEV 10 mg/kg 1 h before stimulus, oral gavage, mean ± SEM, read-out: Brain concentration total",2590 ± 169 ng/g
same,concentration at 1 h,"[2]; brain, analyte LEV, COMPOUND 1 10 mg/kg 3 h + LEV 50 mg/kg 1 h before stimulus, oral gavage, mean ± SEM, read-out: Brain concentration total",12600 ± 549 ng/g
same,concentration at 1 h,"[2]; brain, analyte LEV, COMPOUND 1 30 mg/kg 3 h + LEV 3 mg/kg 1 h before stimulus, oral gavage, mean ± SEM, read-out: Brain concentration total",714 ± 59 ng/g
same,concentration at 1 h,"[2]; brain, analyte LEV, COMPOUND 1 30 mg/kg 3 h + LEV 10 mg/kg 1 h before stimulus, oral gavage, mean ± SEM, read-out: Brain concentration total",2150 ± 142 ng/g
same,concentration at 1 h,"[2]; brain, analyte LEV, COMPOUND 1 30 mg/kg 3 h + LEV 50 mg/kg 1 h before stimulus, oral gavage, mean ± SEM, read-out: Brain concentration total",13500 ± 1380 ng/g
same,concentration at 1 h,"[2]; plasma, 1 mg/kg, analyte LEV, vehicle 3 h + LEV 1 mg/kg 1 h before stimulus, oral gavage, mean ± SEM, read-out: Plasma concentration total",541 ± 48 ng/mL
same,concentration at 1 h,"[2]; plasma, 3 mg/kg, analyte LEV, vehicle 3 h + LEV 3 mg/kg 1 h before stimulus, oral gavage, mean ± SEM, read-out: Plasma concentration total",1170 ± 53 ng/mL
same,concentration at 1 h,"[2]; plasma, 10 mg/kg, analyte LEV, vehicle 3 h + LEV 10 mg/kg 1 h before stimulus, oral gavage, mean ± SEM, read-out: Plasma concentration total",4530 ± 473 ng/mL
same,concentration at 1 h,"[2]; plasma, 50 mg/kg, analyte LEV, vehicle 3 h + LEV 50 mg/kg 1 h before stimulus, oral gavage, mean ± SEM, read-out: Plasma concentration total",26500 ± 2810 ng/mL
same,concentration at 1 h,"[2]; plasma, analyte LEV, COMPOUND 1 10 mg/kg 3 h + LEV 1 mg/kg 1 h before stimulus, oral gavage, mean ± SEM, read-out: Plasma concentration total",564 ± 42 ng/mL
same,concentration at 1 h,"[2]; plasma, analyte LEV, COMPOUND 1 10 mg/kg 3 h + LEV 3 mg/kg 1 h before stimulus, oral gavage, mean ± SEM, read-out: Plasma concentration total",1250 ± 53 ng/mL
same,concentration at 1 h,"[2]; plasma, analyte LEV, COMPOUND 1 10 mg/kg 3 h + LEV 10 mg/kg 1 h before stimulus, oral gavage, mean ± SEM, read-out: Plasma concentration total",5780 ± 232 ng/mL
same,concentration at 1 h,"[2]; plasma, analyte LEV, COMPOUND 1 10 mg/kg 3 h + LEV 50 mg/kg 1 h before stimulus, oral gavage, mean ± SEM, read-out: Plasma concentration total",27000 ± 1350 ng/mL
same,concentration at 1 h,"[2]; plasma, analyte LEV, COMPOUND 1 30 mg/kg 3 h + LEV 3 mg/kg 1 h before stimulus, oral gavage, mean ± SEM, read-out: Plasma concentration total",1230 ± 64 ng/mL
same,concentration at 1 h,"[2]; plasma, analyte LEV, COMPOUND 1 30 mg/kg 3 h + LEV 10 mg/kg 1 h before stimulus, oral gavage, mean ± SEM, read-out: Plasma concentration total",3880 ± 226 ng/mL
same,concentration at 1 h,"[2]; plasma, analyte LEV, COMPOUND 1 30 mg/kg 3 h + LEV 50 mg/kg 1 h before stimulus, oral gavage, mean ± SEM, read-out: Plasma concentration total",26200 ± 2400 ng/mL
same,Brain concentration total,"[2]; analyte LEV, vehicle 3 h + LEV 3 mg/kg 1 h before stimulus, oral gavage, mean ± SEM",675 ± 82 ng/g
same,Brain concentration total,"[2]; analyte LEV, vehicle 3 h + LEV 10 mg/kg 1 h before stimulus, oral gavage, mean ± SEM",2307 ± 207 ng/g
same,Brain concentration total,"[2]; analyte LEV, vehicle 3 h + LEV 50 mg/kg 1 h before stimulus, oral gavage, mean ± SEM",11318 ± 1440 ng/g
"Nc1nnc(-c2cccc(Cl)c2Cl)c(N)n1 [LTG, 6-(2,3-dichlorophenyl)-1,2,4-triazine-3,5-diamine]",Seizure stage (maximal seizure stage observed during exposure to auditory stimulus),[1]; vehicle 3 h + LTG 3 mg/kg 1 h before stimulus,1.9 ± 0.2
same,Seizure stage (maximal seizure stage observed during exposure to auditory stimulus),"[1]; vehicle 3 h + LTG 3 mg/kg 1 h before stimulus, listed as lamotrigine",2
same,Seizure stage (maximal seizure stage observed during exposure to auditory stimulus),[1]; vehicle 3 h + LTG 30 mg/kg 1 h before stimulus,0.2 ± 0.2 #
same,plasma and brain concentrations after administration of the compounds alone or in combination,[2]; COMPOUND 1 and lamotrigine,similar
same,concentration at 1 h,"[2]; brain, 3 mg/kg, analyte LTG, vehicle 3 h + LTG 3 mg/kg 1 h before stimulus, oral gavage, mean ± SEM, read-out: Brain concentration total",1490 ± 128 ng/g
same,concentration at 1 h,"[2]; brain, 10 mg/kg, analyte LTG, vehicle 3 h + LTG 10 mg/kg 1 h before stimulus, oral gavage, mean ± SEM, read-out: Brain concentration total",3260 ± 144 ng/g
same,concentration at 1 h,"[2]; brain, 30 mg/kg, analyte LTG, vehicle 3 h + LTG 30 mg/kg 1 h before stimulus, oral gavage, mean ± SEM, read-out: Brain concentration total",8890 ± 248 ng/g
same,concentration at 1 h,"[2]; brain, analyte LTG, COMPOUND 1 10 mg/kg 3 h + LTG 10 mg/kg 1 h before stimulus, oral gavage, mean ± SEM, read-out: Brain concentration total",3690 ± 393 ng/g
same,concentration at 1 h,"[2]; brain, analyte LTG, COMPOUND 1 30 mg/kg 3 h + LTG 3 mg/kg 1 h before stimulus, oral gavage, mean ± SEM, read-out: Brain concentration total",1370 ± 100 ng/g
same,concentration at 1 h,"[2]; brain, analyte LTG, COMPOUND 1 30 mg/kg 3 h + LTG 10 mg/kg 1 h before stimulus, oral gavage, mean ± SEM, read-out: Brain concentration total",3660 ± 310 ng/g
same,concentration at 1 h,"[2]; brain, analyte LTG, COMPOUND 1 30 mg/kg 3 h + LTG 30 mg/kg 1 h before stimulus, oral gavage, mean ± SEM, read-out: Brain concentration total",8560 ± 853 ng/g
same,concentration at 1 h,"[2]; plasma, 3 mg/kg, analyte LTG, vehicle 3 h + LTG 3 mg/kg 1 h before stimulus, oral gavage, mean ± SEM, read-out: Plasma concentration total",293 ± 27 ng/mL
same,concentration at 1 h,"[2]; plasma, 10 mg/kg, analyte LTG, vehicle 3 h + LTG 10 mg/kg 1 h before stimulus, oral gavage, mean ± SEM, read-out: Plasma concentration total",930 ± 77 ng/mL
same,concentration at 1 h,"[2]; plasma, 30 mg/kg, analyte LTG, vehicle 3 h + LTG 30 mg/kg 1 h before stimulus, oral gavage, mean ± SEM, read-out: Plasma concentration total",3560 ± 165 ng/mL
same,concentration at 1 h,"[2]; plasma, analyte LTG, COMPOUND 1 10 mg/kg 3 h + LTG 10 mg/kg 1 h before stimulus, oral gavage, mean ± SEM, read-out: Plasma concentration total",859 ± 101 ng/mL
same,concentration at 1 h,"[2]; plasma, analyte LTG, COMPOUND 1 30 mg/kg 3 h + LTG 3 mg/kg 1 h before stimulus, oral gavage, mean ± SEM, read-out: Plasma concentration total",284 ± 18 ng/mL
same,concentration at 1 h,"[2]; plasma, analyte LTG, COMPOUND 1 30 mg/kg 3 h + LTG 10 mg/kg 1 h before stimulus, oral gavage, mean ± SEM, read-out: Plasma concentration total",1330 ± 102 ng/mL
same,concentration at 1 h,"[2]; plasma, analyte LTG, COMPOUND 1 30 mg/kg 3 h + LTG 30 mg/kg 1 h before stimulus, oral gavage, mean ± SEM, read-out: Plasma concentration total",2800 ± 475 ng/mL
same,Brain concentration total,[2]; [3],4054 ± 323 ng/g
same,Plasma concentration total,[2]; [3],1203 ± 77 ng/mL
